Test results as given in patent publication US7875603B2, “Specific inhibitors for vascular endothelial growth factor receptors” (Nova Southeastern University, priority 2006, dated 2011).

Assays:
Format in all cases: cell-based
[1] = tested on: Human umbilical vein endothelial cell; assay: In Vitro Angiogenesis Assay (morphogenesis / tube formation on Matrigel); parameters: key to In Vitro Angiogenesis Assay Results (score of extent of cellular networks): Individual cells, well separated (+++++); Cells begin to migrate and align themselves (++++); Cells begin to line but not sprouting (+++); Visible Sprouting (++); Closed polygons begins to form (+); details: for In Vitro Angiogenesis Assay Results (score of extent of cellular networks): HUVECs 10^4 cells/well on ECMatrix, inhibitors 1 mM and 10 mM, 8 hours at 37° C., higher score = greater inhibition of angiogenesis
Experimental: In Vitro Angiogenesis Assay
Human umbilical vein endothelial cell was purchased from Cambrex Co. (East Rutherford, N.J.) and maintained in EGM (Endothelial Growth Medium) supplemented with 2% FBS, 0.1% EGF, 0.1% Hydrocortisone, 0.1% GA-1000 and 0.4% BBE.
The morphogenesis assay on Matrigel was performed according to the manufacturer's instructions (Chemicon International). The ECMatrix™ kit consists of laminin, collagen type IV, heparan sulfate, proteoglycans, entactin and nidogen. It also contains various growth factors (TGF-β, FGF) and proteolytic enzymes (plasminogen, tPA, MMPs) that are normally produced in EHS tumors. The incubation condition was optimized for maximal tube-formation as follows: 50 μl of EC Matrix™ was suitably diluted in the ratio 9:1 with 10×diluent buffer and used for coating the 96-well plate. The coated plates were incubated at 37° C. for 1 hr. to allow the Matrix solution to solidify. In the meantime the HUVECs that were cultured for 24 hours in EGM with 2% FBS was trypsinised and re-suspended in the growth media and the cells were counted. After 1 hr. pre-incubation of the plate with Matrix solution, the HUVECs were plated at 10^4 cells/well in the absence or in the presence of different VEGFR inhibitors (1 mM and 10 mM). After 8 hours incubation at 37° C., the cell three-dimensional organization (cellular network structures) was examined under an inverted photomicroscope. Each treatment was performed in triplicate.
Activated endothelial cells form cellular networks (mesh like structures) resembling capillary tubes sprouting into the stromal space. The formation of these cellular networks is a dynamic process, which started migration and alignment of cells followed by the development of capillary tubes like structures, sprouting of new branches and finally the formation of the cellular networks. Although this in vitro angiogenesis kit is designed only as a qualitative assay, we have made an attempt to quantitate the degree of angiogenesis using a scoring method. The scoring was based on the extent of the cellular networks that were observed as follows:
Individual cells, well separated (+++++)
Cells begin to migrate and align themselves (++++)
Cells begin to line but not sprouting (+++)
Closed polygons begins to form (+).
According to our qualitative assessment, the higher the scoring the greater the efficiency of the compound for inhibiting endothelial cell mediated angiogenesis.

[2] = tested on: GI-101A; assay: Cytotoxicity towards GI-101A breast carcinoma cell line
[3] = tested on: MCF-7; assay: Cytotoxicity towards MCF-7 breast carcinoma cell line

| EC50 ([1]; Homo sapiens, estimated, in vitro angiogenesis assay, HUVEC, read-out: EC50 value for anti-antigenic effect) | SMILES | In Vitro Angiogenesis Assay Results (score of extent of cellular networks) [1] | cytotoxicity towards GI-101A [2] | cytotoxicity towards MCF-7 [3] |
| --- | --- | --- | --- | --- |
| 250 nM | COc1ccc(NCC(O)Cn2cnc3c2c(=O)n(C)c(=O)n3C)cc1 (stereo not shown) [Example 1] | +++++ | produced cytotoxicity | produced cytotoxicity |
|  | CCCCCCCCCCCCCCCCOc1ccc(C(NNS(=O)(=O)c2cccc(C(=O)O)c2)N2CCCCC2)cc1 (stereo not shown) [Example 2] | ++++ |  |  |
|  | CCCCCCCCCCOc1ccc(C(=O)N/N=C/c2ccc(OC)cc2)cc1 [Example 3] | ++++ |  |  |
|  | CCCCCCCOc1ccc(/C=N\NC(=O)c2ccc(Br)cc2)cc1 [Example 4] | +++ |  |  |
|  | CCCCCCCCCCCCCCCCCCOc1ccc(C(=O)CC(=O)Nc2ccc(Sc3cccc(C(=O)O)c3)c(C(=O)O)c2)cc1 [Example 5] | +++ |  |  |
|  | CCCCCCCCCCCCCCCCCCOc1ccc(C(=O)CC(=O)Nc2ccc(Oc3ccc(C(=O)O)cc3)c(C(=O)O)c2)cc1 [Example 6] | ++ |  |  |
|  | CCC(CNCCO)Nc1nc2c(c(=O)n(C)c(=O)n2C)n1Cc1ccccc1 (stereo not shown) [Example 7] | ++ |  |  |
